The source of these data is patent publication US20080234363A1, “Antitumoral Compounds” (PHARMA MAR, S.A., priority 2005, published 2008).

SMILES strings stand for the structures.

In one series the test system is HT29. Nature of the series: SRB antitumor screening, HT29. Type of series: cell-based, human. The note with it: Colon HT29, SRB, 48 hours exposure; for GI50: Homo sapiens, HT-29. The source says: (§1) The finality of these assays was to interrupt the growth of a “in vitro” tumor cell culture by means of a continued exhibition of the cells to the sample to be testing.
(§2) A colorimetric type of assay, using sulforhodamine B (SRB) reaction has been adapted for a quantitative measurement of cell growth and viability [following the technique described by Philip Skehan et al. (1990), New colorimetric cytotoxicity assay for anticancer drug screening, J. Natl. Cancer Inst., 82:1107-1112].
(§3) This form of assay employed 96 well cell culture microplates of 9 mm diameter (Faircloth et al. Methods in cell science, (1988), 11(4), 201-205; Mosmann, Journal of. Immunological Methods (1983), 65(1-2), 55-63. Most of the cell lines were obtained from American Type Culture Collection (ATCC) derived from different human cancer types.
(§4) Cells were maintained in RPMI 1640 10% FBS, supplemented with 0.1 g/L penicillin and 0.1 g/L streptomycin sulphate and then incubated at 37° C., 5% CO2 and 98% humidity. For the experiments, cells were harvested from subconfluent cultures using trypsin and resuspended in fresh medium before plating.
(§5) Cells were seeded in 96 well microtiter plates, at 5×10^3 cells per well in aliquots of 195 μL medium, and they were allowed to attach to the plate surface by growing in drug free medium for 18 hours. Afterward, samples were added in aliquots of 5 μL in a ranging from 10 to 10^−8 μg/mL, dissolved in DMSO:EtOH:PBS (0.5:0.5:99). After 48 hours exposure, the antitumor effect were measured by the SRB methodology: cells were fixed by adding 50 μL of cold 50% (wt/vol) trichloroacetic acid (TCA) and incubated for 60 minutes at 4° C. Plates were washed with deionised water and dried. […] Optical densities were read on an automated spectrophotometric plate reader at a single wavelength of 490 nm.
(§6) The values for mean +/−SD of data from triplicate wells were calculated. Some parameters for cellular responses could be calculated: GI=growth inhibition, TGI=total growth inhibition (cytostatic effect) and LC=cell killing (cytotoxic effect).

Another series has as its system MDA-MB-231. Nature of the series: SRB antitumor screening, MDA-MB-231. Format: cell-based, human. The note with it: Breast MDA-MB-231, SRB, 48 hours exposure; for GI50: Homo sapiens.
Source text: as §1, §2, §3, §4, §5, §6

Series [1] has as its system EGFR intracellular signaling (AP-1 activity). In words: EGFR signalling inhibition assay (AP-1 luciferase reporter, HeLa-AP1). Format: cell-based. The note with it: Homo sapiens; HeLa-AP1 cells, EGF 25 ng/mL stimulation, 18 hours. The source says: In this assay, the signal transduction pathway triggered by the activated Epidermal Growth Factor (EGF) membrane receptor is indirectly quantified using an EGF-responsive, API-mediated, luciferase reporter system.
HeLa-AP1, a subclone of HeLa cell line (human cervix carcinoma, ATCC# CCL-2) stably transfected with a construct containing the luciferase reporter gene under the control of the proximal promoter of the human collagenase-3 gene (consensus AP-1 response element TGACTCA at positions −56/−50) were used. Cells were maintained in DMEM supplemented with 10% FCS and 100 units/mL penicillin and streptomycin at 37° C. and 5% CO2. HeLa-AP1 cells were pre-treated with the indicated compounds for 30 min before stimulation with EGF (25 ng/mL). After further 18 hours incubation, cell survival was estimated, for normalisation, by loading cells for 30 min with the vital fluorescent probe calcein-AM (0.5 μM). Fluorescence was quantified using a 1420 Victor^2 plate multilabel counter (Wallac). After that, cells were lysed and assayed for luciferase activity using the Bright-Glo system (Promega) and a 1450 Microbeta plate luminescence counter (Wallac-Trilux). Results were expressed as percentage of AP-1 activity inhibition as compared to control, untreated cells.
In general terms: Reporter assays use an easily measured gene product as a stand-in for the process of interest.

The next series has as its system A549. In words: SRB antitumor screening, A549. Type of series: cell-based. The note with it: for CC50 / GI50: Homo sapiens; for CC50: A549, 48 h, read-out: LC50; for GI50 / TGI: NSCL A549, SRB, 48 hours exposure.
Source text: as §1, §2, §3, §4
Cells were seeded in 96 well microtiter plates, at 5×10^3 cells per well in aliquots of 195 μL medium, and they were allowed to attach to the plate surface by growing in drug free medium for 18 hours. Afterward, samples were added in aliquots of 5 μL in a ranging from 10 to 10^−8 μg/mL, dissolved in DMSO:EtOH:PBS (0.5:0.5:99). After 48 hours exposure, the antitumor effect were measured by the SRB methodology: cells were fixed by adding 50 μL of cold 50% (wt/vol) trichloroacetic acid (TCA) and incubated for 60 minutes at 4° C. Plates were washed with deionised water and dried. One hundred μL of SRB solution (0.4% wt/vol in 1% acetic acid) was added to each microtiter well and incubated for 10 minutes at room temperature. Unbound SRB was removed by washing with 1% acetic acid. Plates were air dried and bound stain was solubilized with Tris buffer. Optical densities were read on an automated spectrophotometric plate reader at a single wavelength of 490 nm.
as §6

The next series concerns CD-1 male mice. In words: Multiple-administration dose range finding in mice (MTMD). Format: in vivo. How it is done:
The finality of this assay was to determine the maximum tolerated multiple dose (MTMD) in mice by a multiple administration of the drug.
CD-1 male mice were used for this study, weighing ca. 25 g were randomly allocated to several dosing groups. Animals received a multiple doses by either intravenous or extravascular (intraperitoneal) route. […] Mortality was daily recorded. The MTMD was determined based on the mortality found in each dose level, calculated when mortality vs. dose is 0%.

The subject of series [2] is photosynthetic electron transport. The note with it: cited from earlier work.
For the next series, the target named is T1, cytochrome b-cl segment (Bos taurus, UniProt P00157+P13272).
T1 construct: bovine heart submitochondrial particles at the site of the cytochrome b-cl segment; host or cells: bovine heart submitochondrial particles
The note with it: bovine heart submitochondrial particles; cited from earlier work.

A short description of series [3]: Single-administration dose range finding in mice (MTD). The note with it: mouse, in vivo; CD-1 male mice, single intravenous administration, vehicle micelles. Here is the method:
The finality of this assay was to determine the maximum tolerated dose (MTD) in mice by a single administration of the drug.
CD-1 male mice were used for this study, weighing ca. 25 g were randomly allocated to several dosing groups. Animals received a single intravenous administration of Stigmatellin A (CAS Number: 91682-96-1, purchased from Fluka (Ref: 85865)) dosed into the lateral vein of the tail. […] Mortality was recorded daily. The Maximum Tolerated Dose (MTD) was determined based on the mortality found in each dose level, calculated when mortality vs. dose is 0%.

Turning to `CCCC(C)/C=C/C=C/[C@H](OC)[C@@H](C)[C@@H](OC)[C@@H](C)CCc1oc2c(O)c(OC)cc(OC)c2c(=O)c1C` (stereo partly shown) [Compound I], in the series on HT29, the TGI is on record as 5.84E−6 Molar and the GI50 was found to be 867 nM. For the same molecule, in the series with MDA-MB-231, the TGI is given as 3.20E−6 Molar and growth was halved (GI50) at 153 nM. In addition, the midpoint of inhibition in series [1], the IC50, lay at 226 nM. Moreover, in the series with A549, the CC50 stood at 4150 nM, the GI50 came to 92.3 nM and the TGI stood at 5.28E−7 Molar.
For the molecule `C/C=C(C)/C=C/C=C/C(OC)C(C)C(OC)C(C)CCc1oc2c(O)c(OC)cc(OC)c2c(=O)c1C` (stereo not shown) [Stigmatellin A], the 50% growth inhibitory concentration (GI50) in the series with HT29 was found to be 991 nM; with MDA-MB-231, 389 nM; with A549 it was 602 nM. In addition, the MTMD turned out to be 0.28 mg/kg in the series on CD-1 male mice (ip/5DD, liposomes at 0.035 mg/mL) and 0.14 mg/kg with CD-1 male mice (iv/5DD, liposomes at 0.096 mg/mL). For the same molecule, the “inhibition of photosynthetic electron transport” value in series [2] is listed as “powerful inhibitor”. Moreover, the IC50 in series [1] stood at 9720 nM. For the same molecule, on cytochrome b-cl segment, the inhibitory potency result was “identical with that of antimycin and myxothiazol”. In addition, in the series on A549, the CC50 came out at 7580 nM. Further, the TGI with A549 is 1.94E−6 Molar. The molecule also came in with an MTD at 4 days in series [3] of 0.44 mg/kg.

By GI50 is commonly meant the concentration at which growth is held to half of that of the control. As a reminder, the IC50 is the point on the concentration scale where inhibition reaches its midpoint. A low value points to greater potency.
